Measured values reported in patent US20080241081A1, “AMIDE COMPOUND OR SALT THEREOF, AND BIOFILM REMOVER CONTAINING THE SAME” (priority 2006, published 2008).

Key:
[1] = system: biofilm formed by Porphyromonas gingivalis 381-strain; assay: Evaluation test for removing biofilms formed by periodontitis pathogenic bacteria (flow cell system, optical microscope); type: cell-based; settings: same experiment as Experiment Example 1, Porphyromonas gingivalis 381-strain, 10 days
Method: The same experiment as in Experiment Example 1 was conducted except that periodontitis pathogenic bacteria Porphyromonas gingivalis 381-strain (clinical bacteria) was used in place of Pseudomonas aeruginosa PAO1-strain. […] The gradual exfoliation of the deposited biofilm from the cell wall, and the flowing flakes of biofilm exfoliation in the cell were also visually observed.

[2] = system: biofilm formed by Pseudomonas aeruginosa (gfp expression PAO1-strain); assay: Evaluation test for removing biofilms formed by Pseudomonas aeruginosa (flow cell system, fluorescence confocal microscope); type: cell-based; settings: test liquid 100 μM compound; for biofilm removal effect (conclusion): flow cell system, up to 10 days; for state of deposited biofilm observed over time: flow 200 μL per minute, observed after 3, 4, 5, 6, 7 and 10 days, compared with DMSO control test liquid
Method: Each of the amide compounds (Compound 1a-1, 1a-2, 1b-1 and 1c-1) produced in Production Examples 1 to 4 was evaluated for its biofilm removal effect, using the flow cell system shown in FIG. 1.
A culture medium bottle (1), a peristaltic pump (2), a glass cell (4) and a waste fluid bottle (5) are connected via a silicon tube (6) so that a culture medium (9) is supplied to the glass cell from the culture medium bottle (1) using the peristaltic pump (2). The system includes an air removal section (3) between the peristaltic pump (2) and a turncock (7a), for removing the entrained air. All tools in the flow cell system are sterilized using gamma-rays or an autoclave.
As specifically described later, the effect for removing biofilms is examined in the following manner. Bacteria are cultured in a glass cell (4) to grow a biofilm on the inner wall of the cell, and a test liquid containing one of the amide compounds is applied to the biofilm. Then the condition of the biofilm is observed to evaluate the biofilm-removing effect of the compound using a fluorescence confocal microscope (Leica TCS SP2: product of Leica).
The bacteria was prepared by inserting a pTdk-LVAgfp plasmid into a Pseudomonas aeruginosa PAO1-strain using the electroportion method so that the Pseudomonas aeruginosa PAO1-strain is transformed to express Green Fluorescent Protein (hereinafter referred to as “gfp expression PAO1-strain”) (see Teresa R. et al., Applied and Environmental Microbiology, April 2001, p. 1865-1873).
A 30 mM glucose-containing FAB culture medium was used for preincubation, and a 0.3 mM glucose-containing FAB culture medium was used for main cultivation.
The glucose-containing FAB culture medium was prepared by adding 200 μg/mL of carbenicillin to an aqueous solution containing 30 mM glucose or 0.3 mM glucose, 15 mM ammonium sulfate, 33.7 mM disodium hydrogenphosphate, 22.1 mM dipotassium hydrogenphosphate, 51.7 mM sodium chloride, 0.47 mM magnesium chloride, 0.08 mM calcium chloride and the following 0.1% trace metal solution.
An aqueous solution containing 1.16 mM calcium sulfate dihydrate, 0.72 mM iron sulfate heptahydrate, 0.08 mM manganous sulfate monohydrate, 0.08 mM copper sulfate pentahydrate, 0.07 mM zinc sulfate heptahydrate, 0.04 mM cobalt sulfate heptahydrate, 0.04 mM […], and 0.08 mM boric acid.
A gfp expression PAO1-strain was inoculated in a 30 mM glucose-containing FAB culture medium, and was subjected to shake culture at 37° C. in an isothermal tank overnight. The obtained overnight culture liquid was diluted by a 30 mM glucose-containing FAB culture medium to OD590=0.1. […]

autoinducer = settings: as taught by Patent Document 1 (JP 2006-512290); cited from earlier work

| Structure (SMILES) | state of biofilm (removal) [1] | biofilm removal effect (conclusion) [2] | autoinducer agonist activity (autoinducer) | state of deposited biofilm observed over time [2] |
| --- | --- | --- | --- | --- |
| CCCCCCCCCC(=O)CC(=O)NN1CCCC1 [Compound 1a-1, N-(pyrrolidin-1-yl)-3-oxododecanoyl amide] | nearly the entire biofilm was removed in 10 days | effective for removing deposited biofilms | – | – |
| CCCCCCCCCC(=O)CC(=O)NN1CCCCC1 [drawing 7] | – | – | exhibits autoinducer agonist activity | – |
| CCCCCCCCCC(=O)CC(=O)Nc1ccccc1O [Comparative Compound 1, reference compound] | – | – | – | a similar biofilm formation to that of the control test using the control test liquid was observed |
| CCCCCCCCCC(=O)CC(=O)NN1CCCCC1 [Compound 1a-2, N-(piperidine-1-yl)-3-oxododecanoyl amide] | nearly the entire biofilm was removed in 10 days | effective for removing deposited biofilms | – | gradual disappearance of the deposited biofilm with time was observed |
